From ChEMBL document CHEMBL1156755, “Discovery of (Z)-5-(4-methoxybenzylidene)thiazolidine-2,4-dione, a readily available and orally active glitazone for the treatment of concanavalin A-induced acute liver injury of BALB/c mice” (J Med Chem, 2010)
Activity calls are given as the source filed them. The rule behind the calls is not given here.

What was measured:
[1] = system: RAW264.7; experiment: Inhibition of MCP1-induced chemotaxis in mouse RAW264.7 cells at 25 ug/mL relative to control; type: functional
[2] = system: Mus musculus; experiment: Toxicity in BALB/c mouse assessed as pathological changes in lung at 50 mg/kg, ig after 20 hrs by H and E staining based histopathology study; type: organism-based; parameters: dose 50 mg/kg, route intragastric; conditions: in vivo, po
[3] = system: Mus musculus; experiment: Plasma concentration in BALB/c mouse at 30 mg/kg, po; type: ADME, organism-based; parameters: dose 30 mg/kg, route oral; conditions: in vivo
[4] = system: Mus musculus; experiment: Effect on serum alanine aminotransaminase level in concanavalin A-induced acute hepatitis model of BALB/c mouse at 50 mg/kg, po treated 0.5 hrs after concanavalin A challenge measured after 20 hrs (Rvb= 5734.5 +/- 2599.5); type: functional
[5] = system: Mus musculus; experiment: Decrease in concanavalin A-induced hepatic cell necrosis in acute hepatitis model of BALB/c mouse at 50 mg/kg, ig treated 0.5 hrs after concanavalin A challenge measured after 20 hrs by H and E staining based histopathology study; type: functional, organism-based; parameters: dose 50 mg/kg
[6] = system: Mus musculus; experiment: Toxicity in BALB/c mouse assessed as pathological changes in kidney at 50 mg/kg, ig after 20 hrs by H and E staining based histopathology study; type: organism-based; parameters: dose 50 mg/kg, route intragastric; conditions: in vivo, po
[7] = system: Mus musculus; experiment: Effect on serum aspartate aminotransaminase level in concanavalin A-induced acute hepatitis model of BALB/c mouse at 50 mg/kg, po treated 0.5 hrs after concanavalin A challenge measured after 20 hrs (Rvb= 4997.9 +/- 2619.6); type: functional
[8] = system: Mus musculus; experiment: Toxicity in BALB/c mouse liver assessed as change in transaminase level at 50 mg/kg, ig after 20 hrs by H and E staining based histopathology study; type: organism-based; parameters: dose 50 mg/kg, route intragastric; conditions: in vivo, po
[9] = system: Mus musculus; experiment: Toxicity in BALB/c mouse assessed as pathological changes in liver at 50 mg/kg, ig after 20 hrs by H and E staining based histopathology study; type: organism-based; parameters: dose 50 mg/kg, route intragastric; conditions: in vivo, po
[10] = Half life in BALB/c mouse at 30 mg/kg, po; type: ADME, organism-based; parameters: dose 30 mg/kg, route oral; conditions: in vivo
[11] = Oral bioavailability in BALB/c mouse at 30 mg/kg; type: ADME, organism-based; conditions: in vivo
[12] = system: Mus musculus; experiment: Toxicity in BALB/c mouse assessed as pathological changes in heart at 50 mg/kg, ig after 20 hrs by H and E staining based histopathology study; type: organism-based; parameters: dose 50 mg/kg, route intragastric; conditions: in vivo, po
[13] = system: Mus musculus; experiment: Toxicity in BALB/c mouse assessed as pathological changes in spleen at 50 mg/kg, ig after 20 hrs by H and E staining based histopathology study; type: organism-based; parameters: dose 50 mg/kg, route intragastric; conditions: in vivo, po
[14] = system: RAW264.7; experiment: Inhibition of MCP1-induced chemotaxis in mouse RAW264.7 cells; type: functional, cell-based
[15] = Tmax in BALB/c mouse at 30 mg/kg, po; type: ADME, organism-based; parameters: dose 30 mg/kg, route oral; conditions: in vivo

Compound | inhibition at 25 µg/mL [1] [%] | other results
O=C1NC(=O)/C(=C/c2ccccc2)S1 | 16.9 | 
O=C1C/C(=C\c2ccc(Cl)cc2)C(=O)N1 | 17.9 | 
O=C1NC(=O)/C(=C/c2ccc(Br)cc2)N1 | 14 | 
CN(C)c1ccc(/C=C2\SC(=O)NC2=O)cc1 | 15.8 | 
O=C1C/C(=C\c2cccc(O)c2)C(=O)N1 | 11.4 | 
O=C1C/C(=C\c2ccccc2)C(=O)N1 | 5.7 | 
COc1cc(C=C2C(=O)NC(=O)NC2=O)ccc1O | 4.1 | 
CN(C)c1ccc(C=C2C(=O)NC(=O)NC2=O)cc1 | 6.2 | 
COc1ccc(/C=C2\SC(=O)NC2=O)cc1 | 57.8 | Activity [2]: Non-toxic; Cp [3]: 4980 ng/mL; Activity [4]: 677.7 U/L; Activity [5]: Active; Activity [6]: Non-toxic; Activity [7]: 620 U/L; Activity [8]: Non-toxic; Activity [9]: Non-toxic; half-life [10]: 3.37 h; bioavailability [11]: 14.9%; Activity [12]: Non-toxic; Activity [13]: Non-toxic; IC50 [14]: 0.72 µM; Tmax [15]: 0.5 h
O=C1NC(=S)NC(=O)C1=Cc1ccc(Br)cc1 | 4.3 | 
N=C1NC(=O)/C(=C/c2ccc(Cl)cc2)S1 | 13 | 
N=C1NC(=O)/C(=C/c2ccccc2)S1 | 10.1 | 
COc1ccc(/C=C2\SC(=O)NC2=O)cc1OC | 16.6 | 
CN(C)c1ccc(C=C2C(=O)NC(=S)NC2=O)cc1 | 35.7 | Activity [4]: 2930.2 U/L; Activity [5]: Active; Activity [7]: 2072.8 U/L; IC50 [14]: 7.2 µM
CN(C)c1ccc(/C=C2\SC(=N)NC2=O)cc1 | 14 | 
O=C1NC(=S)NC(=O)C1=Cc1cccc(O)c1 | 5.7 | 
COc1ccc(C=C2C(=O)NC(=S)NC2=O)cc1 | 27.4 | Activity [4]: 3141.2 U/L; Activity [5]: Active; Activity [7]: 2109.7 U/L; IC50 [14]: 11.2 µM
O=C1NC(=S)NC(=O)C1=Cc1ccccc1O | 8.9 | 
O=C1NC(=O)/C(=C/c2cccc(O)c2)S1 | 14.4 | 
COc1ccc(/C=C2\NC(=O)NC2=O)cc1 | 19.9 | 
O=C1NC(=O)/C(=C/c2ccc(Br)cc2)S1 | 16.9 | 
O=C1C/C(=C\c2ccc(O)cc2)C(=O)N1 | 8.4 | 
O=C1NC(=O)C(=Cc2ccc(Cl)cc2)C(=O)N1 | 4.1 | 
O=C1NC(=O)C(=Cc2ccccc2O)C(=O)N1 | 5.8 | 
COc1cc(/C=C2\SC(=N)NC2=O)ccc1O | 19.9 | 
O=C1NC(=S)NC(=O)C1=Cc1ccc(Cl)cc1 | 4.1 | 

Compound | inhibition at 25 µg/mL [1] [%] | other results
O=C1NC(=O)/C(=C/c2ccc(O)cc2)N1 [4-HYDROXYPHENYLMETHYLENE HYDANTOIN] | 13 | 
COc1ccc(C=C2C(=O)NC(=O)NC2=O)cc1OC | 14.2 | 
N=C1NC(=O)/C(=C/c2ccc(O)cc2)S1 [MIRIN] | 4.4 | 
O=C1NC(=O)/C(=C/c2ccc3nccnc3c2)S1 | 36.9 | Activity [4]: 1187.5 U/L; Activity [7]: 1084.5 U/L; IC50 [14]: 5.31 µM
O=C1NC(=O)C(=Cc2ccccc2)C(=O)N1 | 5.7 | 
COc1cc(C=C2C(=O)NC(=S)NC2=O)ccc1O | 14.4 | 
O=C1NC(=O)C(=Cc2ccc(Br)cc2)C(=O)N1 | 5.7 | 
O=C1NC(=O)C(=Cc2ccc(O)cc2)C(=O)N1 | 4.3 | 
CN(C)c1ccc(/C=C2\CC(=O)NC2=O)cc1 | 15.7 | 
O=C1NC(=O)/C(=C/c2cccc(O)c2)N1 | 4.4 | 
COc1ccc(/C=C2\SC(=N)NC2=O)cc1OC | 9.4 | 
COc1ccc(C=C2C(=O)NC(=O)NC2=O)cc1 | 6.2 | 
O=C1NC(=S)NC(=O)C1=Cc1ccc(O)cc1 | 14.2 | 
COc1ccc(/C=C2\CC(=O)NC2=O)cc1 | 13.3 | 
COc1cc(/C=C2\CC(=O)NC2=O)ccc1O | 39.5 | Activity [4]: 3304.1 U/L; Activity [7]: 3126.9 U/L; IC50 [14]: 20.5 µM
COc1ccc(/C=C2\NC(=O)NC2=O)cc1OC | 8.7 | 
CN(C)c1ccc(/C=C2\NC(=O)NC2=O)cc1 | 18.6 | 
COc1ccc(/C=C2\SC(=N)NC2=O)cc1 | 18.6 | 
COc1cc(/C=C2\SC(=O)NC2=O)ccc1O | 15.8 | 
N=C1NC(=O)/C(=C/c2ccc(Br)cc2)S1 | 16.6 | 
O=C1NC(=O)/C(=C/c2ccc(O)cc2)S1 | 25.1 | 
COc1ccc(C=C2C(=O)NC(=S)NC2=O)cc1OC | 14.2 | 
O=C1C/C(=C\c2ccc(Br)cc2)C(=O)N1 | 14.3 | 
O=C1NC(=S)NC(=O)C1=Cc1ccccc1 | 10.2 | 
COc1cc(/C=C2\NC(=O)NC2=O)ccc1O | 16.6 | 
O=C1NC(=O)C(=Cc2cccc(O)c2)C(=O)N1 | 15 | 
